Laboratory results: US11214803B2, “Modulators of YAP1 expression” (Ionis Pharmaceuticals, Inc., priority 2019, dated 2022)
Strand notation (5' to 3'): a small letter for the sugar, then the base; units joined by * are phosphorothioate-linked, units joined directly phosphodiester-linked; [ ] holds rarer units or linkages, { } end groups; capitals alone tell only the bases. k = constrained ethyl (cEt); [5mC] = 5-methylcytosine; d = 2'-deoxy (DNA)

What was measured:
Assay type in all cases: cell-based
Yap1 mRNA [1] = test: Antisense inhibition of human Yap1 in A-431 cells by cEt gapmers, single dose (Example 4, RTS4814)
In short: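 A-431 cells took up 3-10-3 cEt gapmers (16-mer, full phosphorothioate, 5-methylcytosines) by free uptake at 2,000 nM for about 48 h. Yap1 mRNA was quantified by qRT-PCR, normalized to total RNA (RIBOGREEN), and reported as % of untreated control.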

Yap1 mRNA [2] = test: Dose-dependent inhibition of human Yap1 in A-431 cells (Example 8, 10,000 cells per well, RTS4814); details: A-431 cells; for IC50: Yap1 mRNA
In short: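 A-431 cells (10,000/well) dosed with modified oligonucleotides by free uptake; Yap1 mRNA measured ~48 h later with primer-probe set RTS4814, normalized to total RNA (RIBOGREEN). Values are % of untreated control; IC50 from linear regression on log/linear plot.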

Yap1 mRNA [3] = test: Antisense inhibition of human Yap1 in SNU-449 cells by modified oligonucleotides, single dose (Example 5, RTS36584); details: Yap1 mRNA, percent of untreated control; modified oligonucleotides targeting SEQ ID NO: 1 and 2; Table 47
In short: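 Each modified oligonucleotide is applied by free uptake to SNU-449 cultures at 2,000 nM, and total RNA is harvested around 48 h later. Yap1 transcript, quantified with the RTS36584 set and corrected for RIBOGREEN RNA content, is given as % UTC. Asterisks mark sequences overlapping the amplicon.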

[4] = Yap1 mRNA remaining as percent of untreated control, 3-10-3 cEt gapmers, A-431 cells, Table 36
[5] = Yap1 mRNA remaining as percent of untreated control, 3-10-3 cEt gapmers, A-431 cells, Table 37

Row | Substance | YAP1 (% UTC) (Yap1 mRNA [1]; [4]) | % UTC (Yap1 mRNA) (Yap1 mRNA [2]; 31.3 nM) | % UTC (Yap1 mRNA) (Yap1 mRNA [2]; 125.0 nM) | % UTC (Yap1 mRNA) (Yap1 mRNA [2]; 500.0 nM) | % UTC (Yap1 mRNA) (Yap1 mRNA [2]; 2000.00 nM) | IC50 (Yap1 mRNA [2]) | YAP1 (% UTC) (Yap1 mRNA [1]; Table 15, A-431 cells, 5,000 cells per well, free uptake, 2,000 nM, approximately 48 hours, RTS4814, normalized to RIBOGREEN, Yap1 mRNA relative to untreated control, * = targets amplicon region of primer probe set) | YAP1 (% UT) (Yap1 mRNA [3]) | YAP1 (% UTC) (Yap1 mRNA [1]; Table 16, A-431 cells, 5,000 cells per well, free uptake, 2,000 nM, approximately 48 hours, RTS4814, normalized to RIBOGREEN, Yap1 mRNA relative to untreated control cells) | YAP1 (% UTC) (Yap1 mRNA [1]; [5])
1 | 1074230 (antisense kA*kA*kG*dA*dA*dG*dA*d[5mC]*dT*dG*dT*d[5mC]*dG*kA*kA*kG) [compound 1074230] | 4 % UTC | 62 % UTC | 30 % UTC | 12 % UTC | 8 % UTC | 50 nM | – | – | – | –
2 | 1075766 (kG*kG*kA*dG*dA*dA*d[5mC]*dA*d[5mC]*dA*dA*dG*dA*kG*kG*k[5mC]; antisense) [compound 1075766] | 5 % UTC | 56 % UTC | 21 % UTC | 11 % UTC | 8 % UTC | < 20 nM | – | – | – | –
3 | 1075222 (kG*kT*kA*dT*dT*dT*dG*dG*dA*d[5mC]*dA*dA*d[5mC]*kT*k[5mC]*kT; antisense) [compound 1075222] | 3 % UTC | 75 % UTC | 30 % UTC | 8 % UTC | 5 % UTC | 100 nM | – | – | – | –
4 | 1076481 (antisense k[5mC]*kT*kA*dA*dG*dT*dA*dA*dG*dG*dT*dT*dT*k[5mC]*k[5mC]*k[5mC]) [Compound 1076481] | – | – | – | – | – | – | 1 % UTC | ^mCksTksAksAdsGdsTdsAdsAdsGdsGds13 % UT | – | –
5 | 1074486 (kA*kT*kT*d[5mC]*dA*d[5mC]*dT*dA*dA*dT*dA*dT*dG*kG*kT*k[5mC]; antisense) [compound 1074486] | 4 % UTC | 55 % UTC | 26 % UTC | 10 % UTC | 6 % UTC | < 20 nM | – | – | – | –
6 | 1074754 (k[5mC]*kT*kT*dT*dT*dA*d[5mC]*dA*dT*dT*dA*dG*dG*kA*kA*k[5mC]) [Compound 1074754] | – | – | – | – | – | – | – | 69 % UT | 11 % UTC | –
7 | 1076439 (k[5mC]*kT*kT*dA*dT*dA*dT*dG*dG*dT*dT*dT*dT*kG*kT*kG) [compound 1076439] | – | 48 % UTC | 13 % UTC | 6 % UTC | 5 % UTC | < 20 nM | – | – | – | 4 % UTC
8 | 1076022 (kT*kA*kA*dT*dT*dA*dG*dA*dT*dG*d[5mC]*dT*dG*kA*k[5mC]*kA; antisense) [compound 1076022] | 2 % UTC | 63 % UTC | 28 % UTC | 8 % UTC | 5 % UTC | 40 nM | – | – | – | –
9 | 1074487 (kA*kG*kA*dT*dT*d[5mC]*dA*d[5mC]*dT*dA*dA*dT*dA*kT*kG*kG; antisense) [compound 1074487] | – | 73 % UTC | 28 % UTC | 11 % UTC | 6 % UTC | 100 nM | – | – | – | 7 % UTC
10 | 1074775 (kG*kG*kT*dT*dT*dA*dT*dT*dG*dT*dA*dA*dA*kA*kG*k[5mC]; antisense) [compound 1074775] | – | 26 % UTC | 5 % UTC | 2 % UTC | 2 % UTC | < 20 nM | – | – | – | 3 % UTC
11 | 1076023 (kA*kT*kA*dA*dT*dT*dA*dG*dA*dT*dG*d[5mC]*dT*kG*kA*k[5mC]; antisense) [compound 1076023] | – | 60 % UTC | 18 % UTC | 5 % UTC | 3 % UTC | < 20 nM | – | – | – | 4 % UTC
